From patent US8586550B2, “Thiazole derivatives as SGLT2 inhibitors and pharmaceutical composition comprising same” (Green Cross Corporation, priority 2010, dated 2013)

Target: T1, Human SGLT2 (hSGLT2) (Homo sapiens, UniProt P31639)
T1 construct: expressed in transfected cells
T1 sequence (P31639 1-672): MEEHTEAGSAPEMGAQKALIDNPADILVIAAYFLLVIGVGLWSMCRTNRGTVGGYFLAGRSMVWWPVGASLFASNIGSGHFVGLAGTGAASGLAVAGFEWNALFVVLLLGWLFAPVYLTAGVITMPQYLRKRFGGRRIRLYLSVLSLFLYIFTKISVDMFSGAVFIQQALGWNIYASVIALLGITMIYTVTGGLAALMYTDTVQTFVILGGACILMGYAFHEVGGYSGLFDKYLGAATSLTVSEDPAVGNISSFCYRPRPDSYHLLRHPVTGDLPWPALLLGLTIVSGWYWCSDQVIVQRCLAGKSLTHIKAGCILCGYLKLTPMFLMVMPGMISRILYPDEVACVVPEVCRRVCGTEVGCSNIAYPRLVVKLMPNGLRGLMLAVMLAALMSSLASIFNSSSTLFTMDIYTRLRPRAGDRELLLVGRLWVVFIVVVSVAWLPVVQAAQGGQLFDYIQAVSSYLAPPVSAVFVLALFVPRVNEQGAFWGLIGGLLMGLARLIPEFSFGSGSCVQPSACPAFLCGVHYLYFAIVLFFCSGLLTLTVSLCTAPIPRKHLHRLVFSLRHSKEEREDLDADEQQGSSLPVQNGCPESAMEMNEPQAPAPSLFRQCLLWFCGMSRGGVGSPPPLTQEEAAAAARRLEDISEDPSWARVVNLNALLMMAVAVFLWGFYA
Assay: Sodium-dependent glucose transport (14C-AMG uptake) assay in CHO cells stably expressing hSGLT2
Format: cell-based
Conditions: CHO cells expressing hSGLT2, 14C-AMG uptake, 37° C. for 2 h; single determinations; read-out: hSGLT2 Inhibitory Activity IC50
Source text: Cloning and Cell Line Construction for Human SGLT2
Human SGLT2 (hSGLT2) gene was amplified by PCR from cDNA-Human Adult Normal Tissue Kidney (Invitrogen). The hSGLT2 sequence was cloned into pcDNA3.1(+) for mammalian expression and were stably transfected into chinese hamster ovary (CHO) cells. SGLT2-expressing clones were selected based on resistance to G418 antibiotic (Geneticin) and activity in the ^14C-α-methyl-D-glucopyranoside (^14C-AMG) uptake assay.
Inhibitory Effects on Human SGLT2 Activities
For sodium-dependent glucose transport assay, cells expressing hSGLT2 were seeded into a 96-well culture plate at a density of 5×10^4 cells/well in RPMI medium 1640 containing 10% fetal bovine serum. The cells were used 1 day after plating. They were incubated in pretreatment buffer (10 mM HEPES, 5 mM Tris, 140 mM choline chloride, 2 mM KCl, 1 mM CaCl2, and 1 mM MgCl2, pH 7.4) at 37° C. for 10 min. They were then incubated in uptake buffer (10 mM HEPES, 5 mM Tris, 140 mM NaCl, 2 mM KCl, 1 mM CaCl2, 1 mM MgCl2, and 1 mM ^14C-nonlabeled AMG, pH 7.4) containing ^14C-labeled (8 μM) and inhibitor or dimethylsulfoxide (DMSO) vehicle at 37° C. for 2 h. Cells were washed twice with washing buffer (pretreatment buffer containing 10 mM AMG at room temperature) and then the radioactivity was measured using a liquid scintillation counter. IC50 was determined by nonlinear regression analysis using GraphPad PRISM [Katsuno, K. et al. J. Pharmacol. Exp. Ther. 2007, 320, 323-330; Han, S. et al. Deabetes, 2008, 57, 1723-1729].

SMILES | IC50
CCCc1cnc(Cc2cc([C@@H]3O[C@H](CO)C(O)[C@H](O)[C@H]3O)c3ccccc3c2OC)s1 (stereo in doubt) [Example 99, (2R,3R,4R,5R,6S)-2-(Hydroxymethyl)-6-(4-methoxy-3-((5-propylthiazol-2-yl)methyl)naphthalen-1-yl)-tetrahydro-2H-pyran-3,4,5-triol] | 19.2 nM
COc1c(Cc2ncc(-c3ccc(F)cc3)s2)cc([C@@H]2O[C@H](CO)[C@@H](O)[C@H](O)[C@H]2O)c2ccccc12 [Example 2, (2S,3R,4R,5S,6R)-2-(3-((5-(4-Fluorophenyl)thiazol-2-yl)methyl)-4-methoxynaphthalen-1-yl)-6-(hydroxymethyl)-tetrahydro-2H-pyran-3,4,5-triol] | 12 nM
OC[C@H]1O[C@@H](c2ccc(Cl)c(C3(c4ncc(-c5ccco5)s4)CC3)c2)[C@H](O)[C@@H](O)[C@@H]1O [Example 3, (2S,3R,4R,5S,6R)-2-(4-Chloro-3-(1-(5-(furan-2-yl)thiazol-2-yl)cyclopropyl)phenyl)-6-(hydroxymethyl)-tetrahydro-2H-pyran-3,4,5-triol] | 47.1 nM
OC[C@H]1O[C@@H](c2ccc(C(F)(F)F)c(Cc3ncc(-c4ccco4)s3)c2)[C@H](O)[C@@H](O)[C@@H]1O [Example 4, (2S,3R,4R,5S,6R)-2-(3-((5-(Furan-2-yl)thiazol-2-yl)methyl)-4-(trifluoromethyl)phenyl)-6-(hydroxymethyl)-tetrahydro-2H-pyran-3,4,5-triol] | 9.73 nM
CCCCCc1cnc(Cc2cc([C@@H]3O[C@H](CO)[C@@H](O)[C@H](O)[C@H]3O)ccc2Cl)s1 [Example 14, (2S,3R,4R,5S,6R)-2-(4-Chloro-3-((5-pentylthiazol-2-yl)methyl)phenyl)-6-(hydroxymethyl)-tetrahydro-2H-pyran-3,4,5-triol] | 13.3 nM
CCCCCCc1cnc(Cc2cc([C@@H]3O[C@H](CO)[C@@H](O)[C@H](O)[C@H]3O)ccc2Cl)s1 [Example 15, (2S,3R,4R,5S,6R)-2-(4-Chloro-3-((5-hexylthiazol-2-yl)methyl)phenyl)-6-(hydroxymethyl)-tetrahydro-2H-pyran-3,4,5-triol] | 5 nM
OC[C@H]1O[C@@H](c2ccc(Cl)c(Cc3ncc(C4CCCC4)s3)c2)[C@H](O)[C@@H](O)[C@@H]1O [Example 19, (2S,3R,4R,5S,6R)-2-(4-Chloro-3-((5-cyclopentylthiazol-2-yl)methyl)phenyl)-6-(hydroxymethyl)-tetrahydro-2H-pyran-3,4,5-triol] | 9.71 nM
OC[C@H]1O[C@@H](c2ccc(Cl)c(Cc3ncc(C4CCCCC4)s3)c2)[C@H](O)[C@@H](O)[C@@H]1O [Example 20, (2S,3R,4R,5S,6R)-2-(4-Chloro-3-((5-cyclohexylthiazol-2-yl)methyl)phenyl)-6-(hydroxymethyl)-tetrahydro-2H-pyran-3,4,5-triol] | 25.4 nM
CCCOc1cnc(Cc2cc([C@@H]3O[C@H](CO)[C@@H](O)[C@H](O)[C@H]3O)ccc2Cl)s1 [Example 22, (2S,3R,4R,5S,6R)-2-(4-Chloro-3-((5-propoxythiazol-2-yl)methyl)phenyl)-6-(hydroxymethyl)-tetrahydro-2H-pyran-3,4,5-triol] | 12.4 nM

Results, then the compound that gave them:

IC50 | SMILES
2 nM | OC[C@H]1O[C@@H](c2ccc(Cl)c(Cc3ncc(-c4ccsc4)s3)c2)[C@H](O)[C@@H](O)[C@@H]1O [Example 1, (2S,3R,4R,5S,6R)-2-(4-Chloro-3-((5-(thiophen-3-yl)thiazol-2-yl)methyl)phenyl)-6-(hydroxymethyl)-tetrahydro-2H-pyran-3,4,5-triol]
1.75 nM | OC[C@H]1O[C@@H](c2ccc(Cl)c(Cc3ncc(-c4ccco4)s3)c2)[C@H](O)[C@@H](O)[C@@H]1O [Example 5, (2S,3R,4R,5S,6R)-2-(4-Chloro-3-((5-(furan-2-yl)thiazol-2-yl)methyl)phenyl)-6-(hydroxymethyl)-tetrahydro-2H-pyran-3,4,5-triol]
6.25 nM | OC[C@H]1O[C@@H](c2ccc(Cl)c(Cc3ncc(-c4ccoc4)s3)c2)[C@H](O)[C@@H](O)[C@@H]1O [Example 6, (2S,3R,4R,5S,6R)-2-(4-Chloro-3-((5-(furan-3-yl)thiazol-2-yl)methyl)phenyl)-6-(hydroxymethyl)-tetrahydro-2H-pyran-3,4,5-triol]
3.2 nM | OC[C@H]1O[C@@H](c2ccc(Cl)c(Cc3ncc(-c4cccs4)s3)c2)[C@H](O)[C@@H](O)[C@@H]1O [Example 7, (2S,3R,4R,5S,6R)-2-(4-Chloro-3-((5-(thiophen-2-yl)thiazol-2-yl)methyl)phenyl)-6-(hydroxymethyl)tetrahydro-2H-pyran-3,4,5-triol]
13.3 nM | OC[C@H]1O[C@@H](c2ccc(Cl)c(Cc3ncc(-c4ccc(Cl)s4)s3)c2)[C@H](O)[C@@H](O)[C@@H]1O [Example 8, (2S,3R,4R,5S,6R)-2-(4-Chloro-3-((5-(5-chlorothiophen-2-yl)thiazol-2-yl)methyl)phenyl)-6-(hydroxymethyl)tetrahydro-2H-pyran-3,4,5-triol]
7.48 nM | OC[C@H]1O[C@@H](c2ccc(Cl)c(Cc3ncc(-c4nccs4)s3)c2)[C@H](O)[C@@H](O)[C@@H]1O [Example 9, (2S,3R,4R,5S,6R)-2-(3-(2,5′-Bithiazol-2′-ylmethyl)-4-chlorophenyl)-6-(hydroxymethyl)-tetrahydro-2H-pyran-3,4,5-triol]
6.86 nM | OC[C@H]1O[C@@H](c2ccc(Cl)c(Cc3ncc(-c4ccccn4)s3)c2)[C@H](O)[C@@H](O)[C@@H]1O [Example 10, (2S,3R,4R,5S,6R)-2-(4-Chloro-3-((5-(pyridin-2-yl)thiazol-2-yl)methyl)phenyl)-6-(hydroxymethyl)-tetrahydro-2H-pyran-3,4,5-triol]
21.2 nM | OC[C@H]1O[C@@H](c2ccc(Cl)c(Cc3ncc(-c4ccc(F)cc4)s3)c2)[C@H](O)[C@@H](O)[C@@H]1O [Example 11, (2S,3R,4R,5S,6R)-2-(4-Chloro-3-((5-(4-fluorophenyl)thiazol-2-yl)methyl)phenyl)-6-(hydroxymethyl)-tetrahydro-2H-pyran-3,4,5-triol]
16.7 nM | CCc1cnc(Cc2cc([C@@H]3O[C@H](CO)[C@@H](O)[C@H](O)[C@H]3O)ccc2Cl)s1 [Example 12, (2S,3R,4R,5S,6R)-2-(4-chloro-3-((5-ethylthiazol-2-yl)methyl)phenyl)-6-(hydroxymethyl)-tetrahydro-2H-pyran-3,4,5-triol]
119 nM | CCCCc1cnc(Cc2cc([C@@H]3O[C@H](CO)[C@@H](O)[C@H](O)[C@H]3O)ccc2Cl)s1 [Example 13, (2S,3R,4R,5S,6R)-2-(3-((5-Butylthiazol-2-yl)methyl)-4-chlorophenyl)-6-(hydroxymethyl)-tetrahydro-2H-pyran-3,4,5-triol]
51.4 nM | CC(C)c1cnc(Cc2cc([C@@H]3O[C@H](CO)[C@@H](O)[C@H](O)[C@H]3O)ccc2Cl)s1 [Example 16, (2S,3R,4R,5S,6R)-2-(4-Chloro-3-((5-isopropylthiazol-2-yl)methyl)phenyl)-6-(hydroxymethyl)-tetrahydro-2H-pyran-3,4,5-triol]
11.5 nM | C=CCc1cnc(Cc2cc([C@@H]3O[C@H](CO)[C@@H](O)[C@H](O)[C@H]3O)ccc2Cl)s1 [Example 17, (2S,3R,4R,5S,6R)-2-(3-((5-Allylthiazol-2-yl)methyl)-4-chlorophenyl)-6-(hydroxymethyl)-tetrahydro-2H-pyran-3,4,5-triol]
4.69 nM | C/C=C(\C)c1cnc(Cc2cc([C@@H]3O[C@H](CO)[C@@H](O)[C@H](O)[C@H]3O)ccc2Cl)s1 [Example 18, (2S,3R,4R,5S,6R,E)-2-(3-((5-(but-2-en-2-yl)thiazol-2-yl)methyl)-4-chlorophenyl)-6-(hydroxymethyl)-tetrahydro-2H-pyran-3,4,5-triol]
18.8 nM | CCOc1cnc(Cc2cc([C@@H]3O[C@H](CO)[C@@H](O)[C@H](O)[C@H]3O)ccc2Cl)s1 [Example 21, (2S,3R,4R,5S,6R)-2-(4-Chloro-3-((5-ethoxythiazol-2-yl)methyl)phenyl)-6-(hydroxymethyl)-tetrahydro-2H-pyran-3,4,5-triol]
